According to US20240358693A1, “METHODS OF TREATING PAIN” (Aisa Pharma, Inc., priority 2023, published 2024):

Tested on: participants with SSc-RP
Experiment: Scleroderma Health Assessment Questionnaire (SHAQ): disability indices and visual analog scales
Type: in vivo, human
Outline: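 Participants with SSc-RP completed the SHAQ at screening and each in-clinic visit. Standard and alternative disability indices (eight categories, 0–3; standard adjusts for aids/assistance) plus Raynaud's VAS on interference over the past 7 days. Reported as absolute change from baseline to end of each dosing period.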

[1] = Baseline, Tadalafil 5 mg (N = 5), Patients with Diagnosis of SSc, PP Population Part A
[2] = Day 12, Modified ITT, Part A, dose Cilnidipine 10 mg, Tadalafil 5 mg, or 10 mg + 5 mg
[3] = Day 12, Tadalafil 5 mg (N = 5), Patients with Diagnosis of SSc, PP Population Part A
[4] = Day 12, mITT Part A, SSc patients, cilnidipine 10 mg and/or tadalafil 5 mg as in the arm
[5] = Day 12, mITT Part A, SSc patients, cilnidipine 10 mg and/or tadalafil 5 mg as in the arm, subject 01-110 score excluded
[6] = In-Clinic Visit (Day 12), Tadalafil 5 mg (N = 5), Patients with Diagnosis of SSc, PP Population Part A
[7] = Modified ITT, Part A, dose Cilnidipine 10 mg, Tadalafil 5 mg, or 10 mg + 5 mg

CN1CC(=O)N2[C@H](c3ccc4c(c3)OCO4)c3[nH]c4ccccc4c3C[C@@H]2C1=O [Tadalafil, tadalafil]
SHAQ Alternative Disability Index, Mean [1]: 0.450
SHAQ Alternative Disability Index, Median [1]: 0.375
SHAQ Standard Disability Index, Mean [1]: 0.550
SHAQ Standard Disability Index, Median [1]: 0.500
SHAQ Alternative Disability Index, Change from Baseline, Mean [2]: −0.094
SHAQ Alternative Disability Index, Change from Baseline, Median [2]: −0.125
SHAQ Alternative Disability Index, Percent Change from Baseline, Mean [2]: −43.70%
SHAQ Alternative Disability Index, Percent Change from Baseline, Median [2]: −20.00%
SHAQ Finger Ulcers, Change from Baseline, Mean [2]: 0.250
SHAQ Finger Ulcers, Change from Baseline, Median [2]: 0.000
SHAQ Finger Ulcers, Percent Change from Baseline, Mean [2]: 6.10%
SHAQ Finger Ulcers, Percent Change from Baseline, Median [2]: 6.10%
SHAQ Standard Disability Index, Change from Baseline, Mean [2]: −0.063
SHAQ Standard Disability Index, Change from Baseline, Median [2]: −0.063
SHAQ Standard Disability Index, Percent Change from Baseline, Mean [2]: −9.26%
SHAQ Standard Disability Index, Percent Change from Baseline, Median [2]: −11.11%
SHAQ Visual Analog Scale-Breathing Problems, Change from Baseline, Mean [2]: 0.500
SHAQ Visual Analog Scale-Breathing Problems, Change from Baseline, Median [2]: 1.050
SHAQ Visual Analog Scale-Breathing Problems, Percent Change from Baseline, Mean [2]: −2.66%
SHAQ Visual Analog Scale-Breathing Problems, Percent Change from Baseline, Median [2]: 29.58%
SHAQ Visual Analog Scale-Intestinal Problems, Change from Baseline, Mean [2]: −0.125
SHAQ Visual Analog Scale-Intestinal Problems, Change from Baseline, Median [2]: 0.000
SHAQ Visual Analog Scale-Intestinal Problems, Percent Change from Baseline, Mean [2]: −6.92%
SHAQ Visual Analog Scale-Intestinal Problems, Percent Change from Baseline, Median [2]: 0.00%
SHAQ Visual Analog Scale-Pain, Change from Baseline, Mean [2]: 1.000
SHAQ Visual Analog Scale-Pain, Change from Baseline, Median [2]: 0.800
SHAQ Visual Analog Scale-Pain, Percent Change from Baseline, Mean [2]: 31.35%
SHAQ Visual Analog Scale-Pain, Percent Change from Baseline, Median [2]: 10.81%
SHAQ Visual Analog Scale-Raynaud's, Change from Baseline, Mean [2]: −0.825
SHAQ Visual Analog Scale-Raynaud's, Change from Baseline, Median [2]: −0.500
SHAQ Visual Analog Scale-Raynaud's, Percent Change from Baseline, Mean [2]: −19.71%
SHAQ Visual Analog Scale-Raynaud's, Percent Change from Baseline, Median [2]: −20.67%
SHAQ Alternative Disability Index, Change from Baseline, Mean [3]: −0.094
SHAQ Alternative Disability Index, Change from Baseline, Median [3]: −0.125
SHAQ Alternative Disability Index, Percent Change from Baseline, Mean [3]: −43.70%
SHAQ Alternative Disability Index, Percent Change from Baseline, Median [3]: −20.00%
SHAQ Standard Disability Index, Change from Baseline, Mean [3]: −0.063
SHAQ Standard Disability Index, Change from Baseline, Median [3]: −0.063
SHAQ Standard Disability Index, Percent Change from Baseline, Mean [3]: −9.26%
SHAQ Standard Disability Index, Percent Change from Baseline, Median [3]: −11.11%
SHAQ Alternative Disability Index, Change from Baseline, Mean [4]: −0.094
SHAQ Alternative Disability Index, Change from Baseline, Median [4]: −0.125
SHAQ Alternative Disability Index, In-Clinic Visit (Day 12), Mean [4]: 0.375
SHAQ Alternative Disability Index, In-Clinic Visit (Day 12), Median [4]: 0.250
SHAQ Alternative Disability Index, Percent Change from Baseline, Mean [4]: −43.70%
SHAQ Alternative Disability Index, Percent Change from Baseline, Median [4]: −20.00%
SHAQ Visual Analogue Scale - Finger Ulcers, Change from Baseline, Mean [4]: 0.250
SHAQ Visual Analogue Scale - Finger Ulcers, Change from Baseline, Median [4]: 0.000
SHAQ Visual Analogue Scale - Finger Ulcers, In-Clinic Visit (Day 12), Mean [4]: 2.325
SHAQ Visual Analogue Scale - Finger Ulcers, In-Clinic Visit (Day 12), Median [4]: 0.050
SHAQ Visual Analogue Scale - Finger Ulcers, Percent Change from Baseline, Mean [4]: 6.10%
SHAQ Visual Analogue Scale - Finger Ulcers, Percent Change from Baseline, Median [4]: 6.10%
SHAQ Visual Analogue Scale - Intestinal Problems, Change from Baseline, Mean [4]: −0.125
SHAQ Visual Analogue Scale - Intestinal Problems, Change from Baseline, Median [4]: 0.000
SHAQ Visual Analogue Scale - Intestinal Problems, In-Clinic Visit (Day 12), Mean [4]: 3.025
SHAQ Visual Analogue Scale - Intestinal Problems, In-Clinic Visit (Day 12), Median [4]: 1.450
SHAQ Visual Analogue Scale - Intestinal Problems, Percent Change from Baseline, Mean [4]: −6.92%
SHAQ Visual Analogue Scale - Intestinal Problems, Percent Change from Baseline, Median [4]: 0.00%
SHAQ Visual Analogue Scale - Overall Disease Severity, Change from Baseline, Mean [4]: 0.625
SHAQ Visual Analogue Scale - Overall Disease Severity, Change from Baseline, Median [4]: 0.700
SHAQ Visual Analogue Scale - Overall Disease Severity, In-Clinic Visit (Day 12), Mean [4]: 5.600
SHAQ Visual Analogue Scale - Overall Disease Severity, In-Clinic Visit (Day 12), Median [4]: 6.550
SHAQ Visual Analogue Scale - Overall Disease Severity, Percent Change from Baseline, Mean [4]: 32.49%
SHAQ Visual Analogue Scale - Overall Disease Severity, Percent Change from Baseline, Median [4]: 26.79%
SHAQ Visual Analogue Scale - Pain, Change from Baseline, Mean [4]: 1.000
SHAQ Visual Analogue Scale - Pain, Change from Baseline, Median [4]: 0.800
SHAQ Visual Analogue Scale - Pain, In-Clinic Visit (Day 12), Mean [4]: 5.300
SHAQ Visual Analogue Scale - Pain, In-Clinic Visit (Day 12), Median [4]: 5.850
SHAQ Visual Analogue Scale - Pain, Percent Change from Baseline, Mean [4]: 31.35%
SHAQ Visual Analogue Scale - Pain, Percent Change from Baseline, Median [4]: 10.81%
SHAQ Visual Analogue Scale - Raynaud's, Change from Baseline, Mean [4]: −0.825
SHAQ Visual Analogue Scale - Raynaud's, Change from Baseline, Median [4]: −0.500
SHAQ Visual Analogue Scale - Raynaud's, In-Clinic Visit (Day 12), Mean [4]: 4.950
SHAQ Visual Analogue Scale - Raynaud's, In-Clinic Visit (Day 12), Median [4]: 5.200
SHAQ Visual Analogue Scale - Raynaud's, Percent Change from Baseline, Mean [4]: −19.71%
SHAQ Visual Analogue Scale - Raynaud's, Percent Change from Baseline, Median [4]: −20.67%
SHAQ Visual Analogue Scale - Breathing Problems, Change from Baseline, Mean [5]: 0.500
SHAQ Visual Analogue Scale - Breathing Problems, Change from Baseline, Median [5]: 1.050
SHAQ Visual Analogue Scale - Breathing Problems, In-Clinic Visit (Day 12), Mean [5]: 4.300
SHAQ Visual Analogue Scale - Breathing Problems, In-Clinic Visit (Day 12), Median [5]: 4.000
SHAQ Visual Analogue Scale - Breathing Problems, Percent Change from Baseline, Mean [5]: −2.66%
SHAQ Visual Analogue Scale - Breathing Problems, Percent Change from Baseline, Median [5]: 29.58%
SHAQ Alternative Disability Index, Mean [6]: 0.375
SHAQ Alternative Disability Index, Median [6]: 0.250
SHAQ Standard Disability Index, Mean [6]: 0.531
SHAQ Standard Disability Index, Median [6]: 0.563
SHAQ Finger Ulcers, Baseline, Mean [7]: 2.075
SHAQ Finger Ulcers, Baseline, Median [7]: 0.050
SHAQ Finger Ulcers, In Clinic Visit (Day 12), Mean [7]: 2.325
SHAQ Finger Ulcers, In Clinic Visit (Day 12), Median [7]: 0.050
SHAQ Standard disability index, Baseline, Mean [7]: 0.594
SHAQ Standard disability index, Baseline, Median [7]: 0.625
SHAQ Standard disability index, In Clinic Visit (Day 12), Mean [7]: 0.531
SHAQ Standard disability index, In Clinic Visit (Day 12), Median [7]: 0.563
SHAQ Visual Analog Scale-Breathing Problems, Baseline, Mean [7]: 3.800
SHAQ Visual Analog Scale-Breathing Problems, Baseline, Median [7]: 4.050
SHAQ Visual Analog Scale-Breathing Problems, In Clinic Visit (Day 12), Mean [7]: 4.300
SHAQ Visual Analog Scale-Breathing Problems, In Clinic Visit (Day 12), Median [7]: 4.000
SHAQ Visual Analog Scale-Intestinal Problems, Baseline, Mean [7]: 3.150
SHAQ Visual Analog Scale-Intestinal Problems, Baseline, Median [7]: 2.600
SHAQ Visual Analog Scale-Intestinal Problems, In Clinic Visit (Day 12), Mean [7]: 3.025
SHAQ Visual Analog Scale-Intestinal Problems, In Clinic Visit (Day 12), Median [7]: 1.450
SHAQ Visual Analog Scale-Pain, Baseline, Mean [7]: 5.967
SHAQ Visual Analog Scale-Pain, Baseline, Median [7]: 7.400
SHAQ Visual Analog Scale-Pain, In Clinic Visit (Day 12), Mean [7]: 5.300
SHAQ Visual Analog Scale-Pain, In Clinic Visit (Day 12), Median [7]: 5.850
SHAQ Visual Analog Scale-Raynaud's, Baseline, Mean [7]: 5.775
SHAQ Visual Analog Scale-Raynaud's, Baseline, Median [7]: 6.400
SHAQ Visual Analog Scale-Raynaud's, In Clinic Visit (Day 12), Mean [7]: 4.950
SHAQ Visual Analog Scale-Raynaud's, In Clinic Visit (Day 12), Median [7]: 5.200
SHAQ alternative disability index, Baseline, Mean [7]: 0.469
SHAQ alternative disability index, Baseline, Median [7]: 0.375
